Assay results published in patent US8017612B2, “Piperazine compound and use thereof as a HCV polymerase inhibitor” (priority 2006, dated 2011).
pIC50: −log10 of the molar value.

What was measured:
[1] = biological target: T1, HCV polymerase (NS5B) type 1a (Hepatitis C virus genotype 1a, UniProt P26664); assay: Assay of enzyme (HCV polymerase) inhibitory activity, type 1a enzyme; format: biochemical, HCV type 1a (cloned from the blood of patients); details: HCV polymerase inhibitory activity IC50, 1a, type 1a enzyme
T1 construct: made in house; host or cells: Escherichia coli (by the 'similar method' of the 1b enzyme)
How it was run: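 Reactions ran 60 min at 25° C in 20 mM Tris-HCl pH 7.5, 5 mM MgCl2, 50 mM NaCl, holding genotype 1a NS5B (1.5 μg/ml, Δ47 C-terminus, 6His), substrate RNA 5 μg/ml, UTP 2 μM with tritiated UTP and other NTPs 50 μM. IC50 derived from incorporated radiolabel in filter-trapped RNA relative to uninhibited reaction.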

[2] = biological target: T2, HCV polymerase (NS5B) type 1b (Hepatitis C virus genotype 1b, UniProt P26663); assay: Assay of enzyme (HCV polymerase) inhibitory activity, type 1b enzyme; format: biochemical, HCV BK strain (type 1b); details: HCV polymerase inhibitory activity IC50, 1b, type 1b enzyme
T2 construct: a region encoding NS5B (J Virol 1991 March, 65(3), 1105-13, 544 amino acids after deletion of 47 amino acids on the C-terminal); 6xHis (C); made in house; host or cells: Escherichia coli
How it was run: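 IC50 derived from [3H]UTP incorporation into TCA-insoluble RNA, compared with and without test compound. Reaction (25 °C, 60 min, Tris pH 7.5, 5 mM MgCl2): E. coli-expressed 1b NS5B Δ47 with His tag at 0.5 μg/ml, 5 μg/ml run-off substrate RNA, ATP/GTP/CTP 50 μM, UTP 2 μM.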

Row | SMILES | pIC50 [1] | pIC50 [2]
1 | O=C(NCc1ccc(OC(F)(F)F)cc1)[C@H]1CN(c2nc3cccnc3s2)CCN1S(=O)(=O)c1ccc(OC(F)(F)F)cc1 [Example 776, (R)-4-thiazolo[5,4-b]pyridin-2-yl-1-(4-trifluoromethoxy-benzenesulfonyl)-piperazine-2-carboxylic acid 4-trifluoromethoxy-benzylamide] | > 7.00 | > 7.00
2 | CCCc1ccc(CNC(=O)[C@H]2CN(c3cnc4cnccc4n3)CCN2S(=O)(=O)c2ccc(I)cc2)cc1 [Example 777, (R)-1-(4-iodo-benzenesulfonyl)-4-pyrido[3,4-b]pyrazin-2-yl-piperazine-2-carboxylic acid 4-propyl-benzylamide] | > 7.00 | > 7.00
3 | CCCc1ccc(CNC(=O)[C@H]2CN(c3cnc4cnccc4n3)CCN2S(=O)(=O)c2ccc(-c3cccc(O)c3)cc2)cc1 [Example 778, (R)-1-(3′-hydroxy-biphenyl-4-sulfonyl)-4-pyrido[3,4-b]pyrazin-2-yl-piperazine-2-carboxylic acid 4-propyl-benzylamide] | > 7.00 | > 7.00
4 | CCCc1ccc(CNC(=O)[C@H]2CN(c3cnc4cnccc4n3)CCN2S(=O)(=O)c2ccc(-c3cccc(OCC(=O)O)c3)cc2)cc1 [Example 779, {4′-[(R)-2-(4-propyl-benzylcarbamoyl)-4-pyrido[3,4-b]pyrazin-2-yl-piperazine-1-sulfonyl]-biphenyl-3-yloxy}-acetic acid] | > 7.00 | > 7.00
5 | O=C(O)c1cccc2nc(N3CCN(S(=O)(=O)c4ccc(OC(F)(F)F)cc4)[C@@H](C(=O)NCc4ccc(OC(F)(F)F)cc4)C3)cnc12 [Example 780, 2-[(R)-4-(4-trifluoromethoxy-benzenesulfonyl)-3-(4-trifluoromethoxy-benzylcarbamoyl)-piperazin-1-yl]-quinoxaline-5-carboxylic acid] | 6.00 to 7.00 | > 7.00
6 | O=C(O)c1cccc2ncc(N3CCN(S(=O)(=O)c4ccc(OC(F)(F)F)cc4)[C@@H](C(=O)NCc4ccc(OC(F)(F)F)cc4)C3)nc12 [Example 781, 3-[(R)-4-(4-trifluoromethoxy-benzenesulfonyl)-3-(4-trifluoromethoxy-benzylcarbamoyl)-piperazin-1-yl]-quinoxaline-5-carboxylic acid] | > 7.00 | > 7.00
7 | O=C(NCc1ccc(OC(F)(F)F)cc1)[C@H]1CN(c2ccc3nccnc3c2)CCN1S(=O)(=O)c1ccc(OC(F)(F)F)cc1 [Example 782, (R)-4-quinoxalin-6-yl-1-(4-trifluoromethoxy-benzenesulfonyl)-piperazine-2-carboxylic acid 4-trifluoromethoxy-benzylamide] | > 7.00 | > 7.00
8 | O=C(NCc1ccc(OC(F)(F)F)cc1)[C@H]1CNCCN1S(=O)(=O)c1ccc(OC(F)(F)F)cc1 [Example 783, (R)-1-(4-trifluoromethoxy-benzenesulfonyl)-piperazine-2-carboxylic acid 4-trifluoromethoxy-benzylamide] | < 6.00 | < 6.00
9 | O=C(NCc1ccc(OC(F)(F)F)cc1)[C@H]1CN(c2nc3nc[nH]c(=O)c3s2)CCN1S(=O)(=O)c1ccc(OC(F)(F)F)cc1 [Example 784, (R)-4-(7-oxo-6,7-dihydro-thiazolo[4,5-d]pyrimidin-2-yl)-1-(4-trifluoromethoxy-benzenesulfonyl)-piperazine-2-carboxylic acid 4-trifluoromethoxy-benzylamide] | > 7.00 | > 7.00
10 | O=C(NCc1ccc(OC(F)(F)F)cc1)[C@H]1CN(c2nc3nn[nH]c(=O)c3s2)CCN1S(=O)(=O)c1ccc(OC(F)(F)F)cc1 [Example 785, (R)-4-(4-oxo-3,4-dihydro-thiazolo[4,5-d][1,2,3]triazin-6-yl)-1-(4-trifluoromethoxy-benzenesulfonyl)-piperazine-2-carboxylic acid 4-trifluoromethoxy-benzylamide] | > 7.00 | > 7.00
11 | CCc1ccc(S(=O)(=O)N2CCN(c3cnc(C(=O)O)cn3)C[C@@H]2C(=O)NCc2ccc(OC(F)(F)F)cc2)cc1 [Example 786, (R)-4-(4-ethyl-benzenesulfonyl)-3-(4-trifluoromethoxy-benzylcarbamoyl)-3,4,5,6-tetrahydro-2H-[1,2′]bipyrazinyl-5′-carboxylic acid] | > 7.00 | > 7.00
12 | O=C(O)c1cnc(N2CCN(S(=O)(=O)c3ccc(Br)s3)[C@@H](C(=O)NCc3ccc(OC(F)(F)F)cc3)C2)cn1 [Example 787, (R)-4-(5-bromo-thiophene-2-sulfonyl)-3-(4-trifluoromethoxy-benzylcarbamoyl)-3,4,5,6-tetrahydro-2H-[1,2′]bipyrazinyl-5′-carboxylic acid] | > 7.00 | > 7.00
13 | O=C(O)c1cnc(N2CCN(S(=O)(=O)c3ccc(N4CCCC4)cc3)[C@@H](C(=O)NCc3ccc(OC(F)(F)F)cc3)C2)cn1 [Example 788, (R)-4-(4-pyrrolidin-1-yl-benzenesulfonyl)-3-(4-trifluoromethoxy-benzylcarbamoyl)-3,4,5,6-tetrahydro-2H-[1,2′]bipyrazinyl-5′-carboxylic acid] | > 7.00 | > 7.00
14 | O=C(NCc1ccc(OC(F)(F)F)cc1)[C@H]1CN(c2cnc3cncnc3n2)CCN1S(=O)(=O)c1ccc(Br)s1 [Example 789, (R)-1-(5-bromo-thiophene-2-sulfonyl)-4-pteridin-7-yl-piperazine-2-carboxylic acid 4-trifluoromethoxy-benzylamide] | > 7.00 | > 7.00
15 | O=C(NCc1ccc(OC(F)(F)F)cc1)[C@H]1CN(c2cnc3cncnc3n2)CCN1S(=O)(=O)c1ccc([N+](=O)[O-])cc1 [Example 790, (R)-1-(4-nitro-benzenesulfonyl)-4-pteridin-7-yl-piperazine-2-carboxylic acid 4-trifluoromethoxy-benzylamide] | > 7.00 | > 7.00
16 | O=C(NCc1ccc(OC(F)(F)F)cc1)[C@H]1CN(c2cnc3cncnc3n2)CCN1S(=O)(=O)c1ccc(C(F)(F)F)cc1 [Example 791, (R)-4-pteridin-7-yl-1-(4-trifluoromethyl-benzenesulfonyl)-piperazine-2-carboxylic acid 4-trifluoromethoxy-benzylamide] | > 7.00 | > 7.00
17 | O=C(NCc1ccc(OC(F)(F)F)cc1)[C@H]1CN(c2cnc3cncnc3n2)CCN1S(=O)(=O)c1ccc(Cl)s1 [Example 792, (R)-1-(5-chloro-thiophene-2-sulfonyl)-4-pteridin-7-yl-piperazine-2-carboxylic acid 4-trifluoromethoxy-benzylamide] | > 7.00 | > 7.00
18 | O=C(NCc1ccc(OC(F)(F)F)cc1)[C@H]1CN(c2ccc3ncccc3n2)CCN1S(=O)(=O)c1ccc(OC(F)(F)F)cc1 [Example 793, (R)-4-[1,5]naphthyridin-2-yl-1-(4-trifluoromethoxy-benzenesulfonyl)-piperazine-2-carboxylic acid 4-trifluoromethoxy-benzylamide] | > 7.00 | > 7.00
19 | O=C(NCc1ccc(OC(F)(F)F)cc1)[C@H]1CN(c2nc3nccnc3s2)CCN1S(=O)(=O)c1ccc(OC(F)(F)F)cc1 [Example 794, (R)-4-thiazolo[4,5-b]pyrazin-2-yl-1-(4-trifluoromethoxy-benzenesulfonyl)-piperazine-2-carboxylic acid 4-trifluoromethoxy-benzylamide] | > 7.00 | > 7.00
20 | O=C(NCc1c(F)c(F)c(C(F)(F)F)c(F)c1F)[C@H]1CN(c2cnc3cncnc3n2)CCN1S(=O)(=O)c1ccc(OC(F)(F)F)cc1 [Example 795, (R)-4-pteridin-7-yl-1-(4-trifluoromethoxy-benzenesulfonyl)-piperazine-2-carboxylic acid 2,3,5,6-tetrafluoro-4-trifluoromethyl-benzylamide] | > 7.00 | > 7.00
21 | CCc1ccc(S(=O)(=O)N2CCN(c3cnc(CO)cn3)C[C@@H]2C(=O)NCc2ccc(OC(F)(F)F)cc2)cc1 [Example 796, (R)-4-(4-ethyl-benzenesulfonyl)-5′-hydroxymethyl-3,4,5,6-tetrahydro-2H-[1,2′]bipyrazinyl-3-carboxylic acid 4-trifluoromethoxy-benzylamide] | > 7.00 | > 7.00
22 | O=C(NCc1c(Cl)cc(Cl)cc1Cl)[C@H]1CN(c2cnc3cncnc3n2)CCN1S(=O)(=O)c1ccc(OC(F)(F)F)cc1 [Example 797, (R)-4-pteridin-7-yl-1-(4-trifluoromethoxy-benzenesulfonyl)-piperazine-2-carboxylic acid 2,4,6-trichloro-benzylamide] | > 7.00 | > 7.00
23 | O=C(NCc1ccc(OC(F)(F)F)cc1)[C@H]1CN(c2cnc3cnc(C(F)(F)F)nc3n2)CCN1S(=O)(=O)c1ccc(OC(F)(F)F)cc1 [Example 798, (R)-1-(4-trifluoromethoxy-benzenesulfonyl)-4-(2-trifluoromethyl-pteridin-7-yl)-piperazine-2-carboxylic acid 4-trifluoromethoxy-benzylamide] | 6.00 to 7.00 | > 7.00
24 | O=C(NCc1ccc(OC(F)(F)F)cc1)[C@H]1CN(c2cnc3cncc(Br)c3n2)CCN1S(=O)(=O)c1ccc(OC(F)(F)F)cc1 [Example 799, (R)-4-(8-bromo-pyrido[3,4-b]pyrazin-2-yl)-1-(4-trifluoromethoxy-benzenesulfonyl)-piperazine-2-carboxylic acid 4-trifluoromethoxy-benzylamide] | > 7.00 | > 7.00
